Experiments:
Drosophila melanogaster = test: Phase-I lifespan of yellow-white Drosophila fed dietary supplements; format: in vivo; conditions: male yellow-white Drosophila, supplement at optimal RDA in diet; for increase in mean survival / longevity: vs. control (36 days)
Procedure: For the phase-I of the study, approximately 1200 male yellow-white Drosophila were bred, isolated and monitored on a daily basis. About 100 fruit flies were tested for each supplement, divided into four vials containing 25 flies each.
In an embodiment of the present invention, a mathematical formula was developed by the inventor for an optimal dosage: Recommended daily human dosage of each supplement per day, divided by 1,000,000 (average weight of a person 50 kg, average weight of 100 flies […]), multiplied by 2 as tubes are used initially for two days, multiplied by 100 as it is assumed only 1% of the food is consumed, multiplied by 4 as bulk food was made for 1 week/8 days. According to the formula, if 100 mg is the recommended human daily dosage of a supplement, the fly dose is 0.08 mg. This was considered optimal required daily allowance (RDA). The supplements were measured on the milligram gemological weighing machine and combined with the regular Drosophila diet (Carolina 424 media, yeast, water) in a temperature controlled insect culture incubator under optimal conditions. 50% survival was calculated by counting the flies that died and transferring the live flies into a different vial with newly made media every two days and near the end, every day. The observations were recorded, calculated, graphed and analysed. Two tailed t-tests were performed to test for statistical significance.

Glutathione = test: Fluorometric Glutathione Assay (monochlorobimane) in supplement-fed flies; format: in vivo, Drosophila melanogaster; conditions: optimal dose (3x), 15 days feeding, compared to the control
Procedure: For the phase-III of the experiment, a new set of Drosophila melanogaster were bred for Western blot and Glutathione assays. […] Single, triple, and six times strength for each of the three supplements were added to 25 flies each in vials along with control for 15 days. The flies were then transferred to perform the Western Blot test to check for GCLc enzyme levels for each group. […] Glutathione Detection Kit from BioVision's ApoGSH was used for an in vitro assay for detection of total glutathione changes in tissue samples. The assay used monochlorobimane (MCB), a dye that appears to form an adduct exclusively with glutathione. […] The reaction was catalysed by glutathione S-transferase. Thus, the amount of total glutathione was detected using a fluorimeter. In an embodiments of the present invention, the kit contents included Cell Lysis Buffer—25 ml, Monochlorobimane (25 mM)—200 μl, GST Reagent (50 U/ml)-200 μl, and GSH Standard (1 mg; MW: 307)—1 Vial. Monochlorobimane was dissolved in DMSO and warmed at a temperature above 18° C. for use. After opening the kit, MCB, GST, and GSH were stored at −20° C. and Cell Lysis Buffer was stored at 4° C. The GSH standard was reconstituted with 100 μl dH2O to generate 10 μg/μl standard stock solution. […] Reading: […] The sample readings were applied to the standard curve to calculate total glutathione amount in each sample. […]

GCLc enzyme = test: Western Blot test for GCLc enzyme levels in supplement-fed flies; format: in vivo, Drosophila melanogaster; conditions: optimal dose (3x), 15 days feeding, compared to the control
Procedure: For the phase-III of the experiment, a new set of Drosophila melanogaster were bred for Western blot and Glutathione assays. […] Single, triple, and six times strength for each of the three supplements were added to 25 flies each in vials along with control for 15 days. The flies were then transferred to perform the Western Blot test to check for GCLc enzyme levels for each group. […] Details of the procedure for Western Blot are mentioned below. A western blot is a method that allows investigators to detect a specific protein in a given sample of tissue. The flies were frozen with dry ice, then standardized, lysis buffer added, homogenized and then centrifuged. The proteins were separated by their molecular weight ([…]) by SDS-PAGE, polyacrylamide gel electrophoresis. An 8% acryl amide gel was used. Smaller proteins migrate faster. Samples were loaded into the wells and a voltage of 150 Volts was applied. The proteins were transferred to a PVDF sheet of special blotting paper. The uniformity was checked by the Coomassie stain. […] A digital image of the western blot was captured using fluorescence and analysed.

Row | SMILES | increase in mean survival / longevity (Drosophila melanogaster) [%] | increase in glutathione (Glutathione) [%] | increase in GCLc enzyme (GCLc enzyme) [%] | mean survival (Drosophila melanogaster; control 36 days) [days]
1 | N[C@@H](CCC(=O)N[C@@H](CS)C(=O)NCC(=O)O)C(=O)O [Glutathione] | 11 | 154 | 7 | 
2 | CC(=O)N[C@@H](CS)C(=O)O [NAC, N acetyl cysteine] | 28 |  |  | 
3 | COC1=C(OC)C(=O)C(C/C=C(\C)CC/C=C(\C)CC/C=C(\C)CC/C=C(\C)CC/C=C(\C)CC/C=C(\C)CC/C=C(\C)CC/C=C(\C)CC/C=C(\C)CCC=C(C)C)=C(C)C1=O [Coenzyme Q10] | 11 |  |  | 
4 | Oc1ccc(C=Cc2cc(O)cc(O)c2)cc1 [Resveratrol] | 39 | 100 | 1 | 50

Source: patent US20130263298A1, “MODELS FOR DIAGNOSIS, PREVENTION AND TREATMENT OF ALZHEIMER'S DISEASE” (INDIGO CAPITAL GROUP LLC, priority 2012, published 2013)
